For the experiment, the target named is T1, VDR (Mus musculus, UniProt P48281).
T1 construct: endogenous in cells; host or cells: 4TO7 and 4T1 mouse triple-negative breast cancer cells
T1 sequence (P48281 1-422): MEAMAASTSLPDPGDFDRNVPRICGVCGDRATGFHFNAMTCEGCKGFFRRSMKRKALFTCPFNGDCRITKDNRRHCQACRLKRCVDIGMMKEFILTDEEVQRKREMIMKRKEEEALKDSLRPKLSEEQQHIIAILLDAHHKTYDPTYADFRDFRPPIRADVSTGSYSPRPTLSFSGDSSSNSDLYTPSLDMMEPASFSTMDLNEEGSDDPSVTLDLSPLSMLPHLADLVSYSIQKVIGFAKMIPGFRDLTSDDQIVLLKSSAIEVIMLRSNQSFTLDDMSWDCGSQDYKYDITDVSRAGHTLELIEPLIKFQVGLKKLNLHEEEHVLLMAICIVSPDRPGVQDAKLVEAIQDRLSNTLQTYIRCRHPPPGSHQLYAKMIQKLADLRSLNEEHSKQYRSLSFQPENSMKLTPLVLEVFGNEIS
Kind of experiment: Cyp24a1 induction assay for VDR agonism in 4TO7 cells. It is filed as cell-based. To be noted: 24 h. Here is the method: Figure 5 (a) and (b) Analysis of induced Cyp24a1 expression in 4TO7 (a) and 4T1 (b) cells to test for VDR agonism of DK-406 and heterocyclic analogues after 24 h treatment. c-e. Analysis of the cytotoxicity of hybrid compounds after 24 h using the MTGlo assay (see Methods for details) in 4TO7 (c), 4T1 (d) and MDA-MB-231 (e) cells. […] Each condition was compared to control. *: p ≤ 0.05, **: p ≤ 0.01, ***: p ≤ 0.001, ****: p ≤ 0.0001, ns: not significant.
As previously, we were interested in studying the efficacy of hybrids in models of TNBC. We used the 4T1 cell line[20] as well as the related TNBC cell line 4TO7, which was derived from the same mouse tumor as 4T1 cells in Balb/c mice[33]. 4TO7 cells readily form primary tumors. […] These lines also have the advantage that anti-tumor efficacy studies can be performed in Balb/c mice, which have intact immune systems. Compounds were initially tested for VDR agonist activity in 4TO7 cells by screening induction of the VDR target gene Cyp24a1. […] The pyridyl hybrids were then tested for efficacy in vitro in 4TO7 and 4T1 cells using an MT-Glo assay in which only viable cells can convert a precursor into a substrate for a luciferase bioluminescence assay (Fig. 5c,d; see Methods for details).
Mouse 4T07 cells and 4T01 cells were cultured in DMEM (319–005-CL; WISENT Inc.) supplemented with 10% heat-inactivated FBS. MB-MDA231 cells were cultured in Leibovitz’s L-15 medium with 10% heat-inactivated FBS in the absence of CO2.
RNA extraction was performed with the FavorPrep tissue total RNA mini kit (FAVORGEN Biotech Corporation—FATRK 001) as per manufacturer’s instructions. cDNA was obtained from 1 µg of RNA using 5X All-in-One RT Mastermix (Applied Biological Materials (abm) Inc.—G485) and diluted 5 times. qPCR was performed with BrightGreen 2X q-PCR MasterMix (abm—MasterMix-LR-XL) on a Roche LightCycler 96 system. Expression of targeted genes was normalized to 18S RNA.

Take `CCC(CC)(c1ccc(OCCCCCC(=O)NO)cc1)c1ccc(OCC(O)C(C)(C)C)c(C)n1` (centres unmarked) [AM-193]: the “VDR agonist activity (Cyp24a1 induction)” value is on record as “partial agonists” and the “potency in Cyp24a1 induction assay relative to DK-406” value was “approximately tenfold”.
For `CCC(CC)(c1ccc(OCC(O)C(C)(C)C)c(C)c1)c1ccc(OCC(=O)NO)cn1` (centres unmarked) [AM-155], the “VDR agonist activity (Cyp24a1 induction)” value is “weakly potent VDR agonists”.
In the case of `CCC(CC)(c1ccc(C(=O)NCCCCCC(=O)NO)cc1)c1ccc(OCC(O)C(C)(C)C)c(C)c1` (centres unmarked) [DK-406], the “VDR agonist activity (Cyp24a1 induction)” value is given as “partial agonists”.
Regarding `CCC(CC)(c1ccc(OCC(O)C(C)(C)C)c(C)c1)c1ccc(OCCCC(=O)NO)cn1` (centres unmarked) [AM-171], the “VDR agonist activity (Cyp24a1 induction)” value is “weakly potent VDR agonists”.
